Read-outs that look alike come from different tables or passages of the source.
Tests used:
MEFs and HCT116 cells = assay: Activation of Atm and Chk2 (DNA damage response), western blot; type: cell-based; conditions: 4 hrs, phosphorylation of Atm and Chk2
p53 in primary MEFs = assay: p53 protein level by western blot (screen)
Experimental: Cells were lysed in TNEN buffer (50 mM Tris, 150 mM NaCl, 5 mM EDTA, 0.5% NP-40, and 0.1% Triton X-100) supplemented with 1 mM NaF, Na2VO3, 1 mM PMSF, and 1 μg/ml of aprotonin, leupeptin, and pepstatin A. Protein concentrations were determined using a Bio-Rad assay. Proteins were resolved by SDS-PAGE and transferred to polyvinylidene difluoride membranes (Millipore).

HCT116 cells = assay: Wst-1 cell survival assay; conditions: HCT116, compared to other genotoxic drugs such as Itu
BCR-ABL MEF cells = assay: Wst-1 cell survival assay; conditions: Mus musculus, 24 h, read-out: IC50, cell survival
Experimental: (§1) We then evaluated the cytotoxic effect of Bisindolylmaleimide IX in MEFs and HCT116 cells. Different doses of Bisindolylmaleimide IX were applied to the cell cultures and cell survival rates and IC50 were determined with Wst-1 assay.
(§2) To measure cell survival rates after Bisindolylmaleimide IX treatment, cells were plated at 1×10^4 in 96 well plates and cultured for overnight, which were then treated with Bisindolylmaleimide IX for 48 hrs. Cell proliferation reagent WST-1 (Roche) was added to each well and was further incubated for 4 hrs at 37°C. The absorbance was measured against a control using microplate reader at 440 nm. The reference wavelength was 630 nm.

DNA topoisomerase = assay: DNA relaxation assay with extracts of treated MEFs; type: cell-based, mouse; conditions: supercoiled pBluescript plasmid DNA as template
Experimental: Bisindolylmaleimide IX and other derivatives were added to MEF cultures and 24 hrs later, the cells were washed with PBS and harvested in TNE buffer. The control and Bisindolylmaleimide IX-treated cell extracts were directly used to test the topoisomerase activity using a kit from Topogen (Port Orange, USA) following the manufacturer's protocol, or pBluescript DNA as a template. The in vitro incubation lasted 30 min at room temperature. A 2% agarose gel was run to analyze DNA unwinding (Topogen) or 0.8% gel for pBluescript DNA.

K562 cells = assay: Wst-1 cell survival assay; conditions: for IC50: Homo sapiens, read-out: IC50, cell survival
Experimental: as §1, §2

[1] = system: tumors derived from HCT116; assay: HCT116 carcinoma xenograft in nude mice; type: in vivo, mouse; conditions: 10 mg/kg for 7 days
Experimental: Male BALB/cASlac-nude mice (4-week-old) were purchased from Shanghai Slac Laboratory Animal C. LTD. The mice were kept in the SPF mouse facility for 1 week before being inoculated with HCT116 cells. HCT116 cells were harvested by trypsinization, counted and resuspended in PBS at the concentration of 5×10^7/ml. We injected subcutaneously 3×10^6 cells to BALB/cASlac nude mice's back. After 2 weeks, the mice were divided into 3 groups (6 mice per group) and were treated with 5-Iodotubercidin (Itu), Bisindolylmaleimide IX or solvent (PBS). The mice were weighed and the size of tumor measured. The length (L) and width (W) of the tumor were measured with a digital caliper and expressed as tumor volume (0.5L×W^2, mm^3).

primary MEFs = assay: Wst-1 cell survival assay
Experimental: as §1, §2

BCR-ABL BaF3 cells [2] = conditions: BCR-ABL BaF3, 24 hrs, compared among bisindolylmaleimide derivatives
γH2AX foci in MEFs = assay: γH2AX DNA damage foci, immunofluorescent staining; type: cell-based, mouse; conditions: 2.5 μM, 4 hrs
Experimental: MEFs or HCT116 cells were cultured on cover slips while Baf3 cells were cultured on slides coated by 0.1mg/ml poly-L-lysine, washed with phosphate-buffered saline (PBS) twice, and then fixed in 4% paraformaldehyde (PFA), which were permeabilized with 0.1% Triton X in PBS for 30 minutes at room temperature. The primary antibodies were diluted in PBS with 1% BSA (1:200). The slides were blocked (1% BSA in PBS) for 60 minutes at room temperature, incubated with primary antibodies overnight at 4°C, and followed by secondary antibody incubation for 60 min at RT. The slides were then mounted and observed under confocal microscope (Leica, Germany). Antibodies against γH2AX were from Bethyl Corporation.

BCR-ABL BaF3 cells [3] = assay: cells; conditions: Mus musculus, BaF3, 24 h, read-out: IC50, cell survival
MEFs = assay: Cell cycle analysis by FACS; type: cell-based, mouse; conditions: 24 hrs
Experimental: Cells were seeded on 35-mm dishes and cultured for 24 hrs, reaching 60–70% confluency. The cells were treated with different concentrations of Bisindolylmaleimide IX for 24 or 48 hrs, harvested by trypsinization, resuspended in 200 μl PBS, and fixed in 100% ethanol overnight at 4°C. The fixed cells were pelleted by centrifugation, resuspended in 800 μl PBS containing ribonuclease A (100 μg/ml) and incubated for 30 min at 37°C. Then 10 μl propidium iodide (PI, 4 mg/ml PBS) were added to the samples, which were assessed on a FACSCalibur flow cytometer using Cell Quest software (BD Bioscience).

CS(=O)(=O)O.Cn1cc(C2=C(c3cn(CCCSC(=N)N)c4ccccc34)C(=O)NC2=O)c2ccccc21 [Bisindolylmaleimide IX, 3-[1-[3-(Amidinothio)propyl]-3-indolyl]-4-(1-methyl-3-indolyl)-1H-pyrrole-2,5-dione methanesulfonate]
lowest concentration able to activate the DNA damage response (MEFs and HCT116 cells): 1.0 µM | p53 protein up-regulation (p53 in primary MEFs): up-regulate p53 at the protein levels | cytotoxicity (in words) (HCT116 cells): modest cytotoxicity | IC50 (BCR-ABL MEF cells): 3.46 µM | DNA relaxation (topoisomerase) activity of extract from treated cells (DNA topoisomerase): partially lost this activity | IC50 (K562 cells; K562, 24 h): 3.72 µM | IC50 (K562 cells; K562, 48 h): 3.48 µM | cytotoxicity (in words) (K562 cells; K562, Wst-1): highly sensitive | body weights of the mice [1]: not affected | tumor size [1]: did not go down | cytotoxicity (in words) (primary MEFs; MEFs, compared to other genotoxic drugs such as Itu): modest cytotoxicity | IC50 (primary MEFs; Mus musculus, 24 h, read-out: IC50, cell survival): 3.83 µM | cytotoxic effect (in words) (BCR-ABL BaF3 cells [2]): most potent one | γH2AX foci formation (γH2AX foci in MEFs): numerous foci positive for γH2AX | IC50 (BCR-ABL BaF3 cells [3]): 3.26 µM | cell cycle profile (MEFs): increase in G2/M phase cells and a decrease in S phase cells

From article PMC5342526, “Identification of Bisindolylmaleimide IX as a potential agent to treat drug-resistant BCR-ABL positive leukemia” (Oncotarget, 2016)
